Laboratory results: US20230339882A1, “SHP2 INHIBITOR AND COMPOSITION AND APPLICATION THEREOF” (Betta Pharmaceuticals Co., Ltd., priority 2020, published 2023)
Read-outs that look alike come from different tables or passages of the source.

How the values were obtained:
hERG potassium channel [1] = biological target: T1, hERG potassium channel (Homo sapiens (Human), UniProt Q12809); assay: Patch clamp experiments on the hERG ion channel (HEK293 cells overexpressing hERG)
Description: (§10) Example C Patch Clamp Experiments to Assess the Effects of Compounds on the hERG Ion Channel
(§11) Dilute the test sample diluent in sequence with extracellular fluid to prepare detection solutions with final concentrations of 0.3 µM, 1 µM, 3 µM, 10 µM and 30 µM. The solubility of the samples to be tested was visually checked.
(§12) The cell line was derived from HEK293 cells and cultured in a 37° C., 5% CO2 incubator. In order to prevent cell senescence caused by contact inhibition, when the cell culture confluence should not exceed 80%, the cells should be passaged every ¾ days, and the inoculation density of each T175 flask should be 2*106 cells. Pre-wash with Phosphate Buffered Saline (PBS), then trypsin/EDTA for 2-3 minutes, stop digestion by adding cell culture medium, and transfer to a new culture bottle.
(§13) HEK293 cells overexpressing the hERG potassium channel were cultured overnight at a cell density below 50%. Experimental cells were transferred to a cell bath embedded in an inverted microscope stage(Diaphot, Nikon) and perfused with extracellular fluid. The extracellular fluid contained 130 mM NaCl, 4 mM KCl, 1.8 mM CaCl2, 1 mM MgCl2, 10 mM glucose and 10 mM HEPES (pH 7.4 with NaOH) at a perfusion rate of 4 ml/min. The inner tube contains 130 mM KCl, 1 mM MgCl2, 5 mM EGTA, 5 mM MgATP and 10 mM HEPES (pH 7.2 with KOH). Membrane currents were recorded using a HEKA EPC-10 patch-clamp amplifier and [sequence] acquisition system (HEKA Instruments Inc., D-67466 Lambrecht, Pfalz, Germany). All experiments were done at room temperature (22-23° C.).
(§14) Electrodes (BF150-86-10) were straightened during the experiments using a P-97 microelectrode puller (Sutter Instrument Company, One Digital Drive, Novato, CA 94949). The inner diameter of the electrode is 1-1.5 mm, and the water entry resistance after filling with internal liquid is 2-4 MΩ.
(§15) When the whole-cell seal is formed, wait for the current to stabilize for 2 minutes (the current decay is less than 5% within 5 minutes, and the tail current value is greater than500 pA). At this time, the peak value of the tail current is the control current value. The extracellular fluid containing the drug to be tested is then perfused. The same procedure was repeated 3-5 times, exposing each cell to 4-6 increasing concentrations of compounds. Blocking and deactivation of hERG during compound exposure and washout were continuously recorded.
(§16) When the whole-cell seal was formed, the cell membrane voltage was clamped at -80 mV, depolarized for 2 seconds every 12 seconds, and the clamping voltage was depolarized from -80 mV to -50 mV under a 5-second repolarization pulse of -50 mV. Measure the peak tail current.
(§17) Peak hERG tail currents were measured under a 5 s repolarization pulse of -50 mV. Each drug concentration was plotted against the current inhibition rate as a function of the logarithm of the compound concentration. The following Hill equation was used to fit a concentration-response curve to fit IC50.
(§18) Y: test value; Bottom: the lowest test value (0); Top: the highest test value (1); Hillcoefficient: the maximum absolute value of the slope of the curve.
(§19) Data are presented as mean ± standard deviation.

SHP2 [2] = biological target: T2, SHP2 (Homo sapiens (Human), UniProt Q06124); assay: SHP2 allosteric inhibitory enzyme activity assay (DiFMUP fluorescence); format: biochemical; details: read-out: SHP2 enzymatic activity IC50
Outline: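 Human SHP2 (0.2 ng) preincubated 1 h at room temperature with 25 µM activating peptide IRS1_pY1172(dPEG8)pY1222 and compound (10-point series from 10 µM) in HEPES/NaCl/KCl/BRIJ-35/EDTA/DTT buffer. DiFMUP then added for 1 h; fluorescence at ex 340/em 450 nm, normalized to no-enzyme and no-inhibitor controls, IC50 from variable-slope fit.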

[3] = In vitro metabolic stability in liver microsomes, monkey; format: in vitro ADME; details: for microsomal CLint at 2 µM: pH 7.3, read-out: CLint (µL/min/mg protein) monkey
leukemia cells MV-4-11 = assay: Cell proliferation assay, CELL TITER-GLO (CTG) luminescence, MV-4-11; format: cell-based
Outline: (§1)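 NCI-H358 (2000 cells/well, ultra-low-attachment plates) and MV-4-11 cells were dosed 24 h after seeding at 1000 nM down to 0.1524 nM (3-fold steps). Viable-cell ATP was read by CellTiter-Glo luminescence after 96 h for NCI-H358 and 120 h for MV-4-11. IC50 came from a variable-slope fit of inhibition versus the 0 nM control.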

[4] = system: lung cancer cells NCI-H358; assay: Cell proliferation assay, CELL TITER-GLO (CTG) luminescence, NCI-H358; format: cell-based; details: cultured for 96 hrs
Outline: as §1

[5] = In vitro metabolic stability in liver microsomes, human; format: in vitro ADME; details: for microsomal CLint at 2 µM: pH 7.3, read-out: CLint (µL/min/mg protein) human
Description: (§2) Example D: In Vitro Metabolic Stability of Human and Rat Liver Microsomes Test Buffer Preparation
(§3) Dissolve 1900 mg of MgCl2 in 400 mL of ultrapure water.
(§4) Dissolve 17.42 g K2HPO4 and 13.65 g KH2PO4 into 1000 mL of ultrapure water, respectively. Mix a certain proportion of K2HPO4 and KH2PO4 to adjust the pH to 7.30 ± 0.10.
(§5) Prepare a solution of 10 ng/mL labetalol and 10 ng/mL glyburide in acetonitrile and store at 4° C.
(§6) Prepare 10 mM verapamil (positive control) and test article stock solutions in DMSO. Then, with MeOH/ACN/H2O solution (1:1:2 by volume), diluted to 50 µM and 200 µM working solutions, respectively.
(§7) experiment procedure: • 1) Add 40 µL MgCl2 and 306 µL PBS to 96 wells (set blank control group, positive control group, test compound sample group, and negative control group at the same time) • 2) Add 4 µL of compound working solution to each well (4 µL of PBS buffer for blank group) (Note: the final concentration of DMSO volume in the system is ≤ 0.5%) • 3) Add 10 µL of liver microsomes (concentration: 20 mg/mL) to each well, mix well, and pre-incubate at 37° C. for 10 minutes. • 4) Add 40 µL of 10 mM NADPH working solution to each well to start the reaction (add equal volume of PBS buffer for blank control group and negative control group respectively), the total reaction volume is 400 µL. • 5) Take out 50 µL samples from the above reaction solution at 0, 5, 15, and 45 minutes, and add 400 µL of reaction stop solution to stop the reaction • 6) Shake the sample after the termination of the reaction on a shaker for 5 minutes. • 7) Centrifuge the sample at 3200 rcf for 10 minutes. After the centrifugation is complete, transfer 50 µL of the supernatant to 200 µL of H2O for dilution for LC-MS/MS analysis.
(§8) Calculations of t½ and CLint are performed using the first-order kinetic equations: […]
(§9) where k represents the elimination constant, calculated from a log-linear plot of percentage remaining versus time. t½ represents half-life. Cprotein is the concentration of liver microsomes.

[6] = In vitro metabolic stability in liver microsomes, rat; format: in vitro ADME; details: for microsomal CLint at 2 µM: pH 7.3, read-out: CLint (µL/min/mg protein) rat
Description: as §2, §3, §4, §5, §6, §7, §8, §9

[7] = In vitro metabolic stability in liver microsomes, dog; format: in vitro ADME; details: for microsomal CLint at 2 µM: pH 7.3
[8] = In vitro metabolic stability in liver microsomes, mouse; format: in vitro ADME; details: for microsomal CLint at 2 µM: pH 7.3, read-out: CLint (µL/min/mg protein) mouse
hERG potassium channel [9] = biological target: T1, hERG potassium channel
Description: as §10, §11, §12, §13, §14, §15, §16, §17, §18, §19

SHP2 [10] = biological target: T2, SHP2; details: according to WO2019183367, cited from earlier work
[11] = read-out: hERG, patch clamp, peak tail current, HEK293
[12] = Homo sapiens, MV4-11, cultured for 120 hrs
[13] = Homo sapiens, NCI-H358, ultra-low adsorption plate

T1 sequence (Q12809 whole entry): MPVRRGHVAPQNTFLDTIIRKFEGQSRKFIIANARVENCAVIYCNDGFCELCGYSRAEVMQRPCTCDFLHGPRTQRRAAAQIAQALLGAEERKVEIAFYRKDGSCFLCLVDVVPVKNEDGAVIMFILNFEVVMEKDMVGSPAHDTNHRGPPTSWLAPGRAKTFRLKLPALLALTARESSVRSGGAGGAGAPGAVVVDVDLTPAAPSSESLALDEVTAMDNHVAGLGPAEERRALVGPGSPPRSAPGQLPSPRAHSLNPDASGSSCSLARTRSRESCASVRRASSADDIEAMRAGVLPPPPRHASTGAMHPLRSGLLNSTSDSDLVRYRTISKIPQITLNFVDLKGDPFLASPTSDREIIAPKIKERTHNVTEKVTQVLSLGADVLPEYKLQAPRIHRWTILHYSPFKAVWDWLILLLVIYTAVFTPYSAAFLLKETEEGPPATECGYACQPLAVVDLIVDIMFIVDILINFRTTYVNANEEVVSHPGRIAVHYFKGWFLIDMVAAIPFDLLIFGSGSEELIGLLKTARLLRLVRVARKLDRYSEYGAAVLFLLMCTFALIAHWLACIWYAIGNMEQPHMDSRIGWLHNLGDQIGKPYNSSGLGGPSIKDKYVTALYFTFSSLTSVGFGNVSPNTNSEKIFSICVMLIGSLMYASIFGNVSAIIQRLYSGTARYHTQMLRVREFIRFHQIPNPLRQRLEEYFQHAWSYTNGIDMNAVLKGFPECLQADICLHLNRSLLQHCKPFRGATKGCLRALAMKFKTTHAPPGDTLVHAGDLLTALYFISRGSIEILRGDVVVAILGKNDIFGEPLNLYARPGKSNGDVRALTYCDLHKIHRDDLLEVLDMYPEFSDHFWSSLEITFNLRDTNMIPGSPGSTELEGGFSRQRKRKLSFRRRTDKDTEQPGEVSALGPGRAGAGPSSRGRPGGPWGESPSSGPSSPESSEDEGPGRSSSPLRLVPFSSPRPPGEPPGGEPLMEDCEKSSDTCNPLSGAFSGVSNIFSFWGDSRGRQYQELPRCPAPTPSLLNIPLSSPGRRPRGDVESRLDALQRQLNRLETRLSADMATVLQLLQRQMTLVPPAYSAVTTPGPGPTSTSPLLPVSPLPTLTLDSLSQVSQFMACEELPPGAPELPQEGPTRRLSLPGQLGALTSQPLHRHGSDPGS

Row | IC50 (SHP2 [2]) [nM] | microsomal CLint at 2 µM [3] [µL/min/mg] | IC50 (leukemia cells MV-4-11; [12]) [nM] | IC50 [4, 13] [nM] | microsomal CLint at 2 µM [5] [µL/min/mg] | microsomal CLint at 2 µM [6] [µL/min/mg] | microsomal CLint at 2 µM ([7]; dog, microsomes) [µL/min/mg] | microsomal CLint at 2 µM [8] [µL/min/mg] | SMILES | IC50 (hERG potassium channel [1]) [nM] | IC50 (hERG potassium channel [1]; [11]) [nM] | IC50 (leukemia cells MV-4-11; cultured for 120 hrs) [nM] | IC50 ([4]; ultra-low adsorption plate) [nM] | also measured
1 | 1.1 | 15.9 | 1 | 5.8 | 10.7 | 16.2 | 14.9 | 16.8 | NC(=O)Cc1cccc(OCC#Cc2cnc(N3CCC4(CC3)Cc3ccccc3[C@H]4N)c(CO)n2)c1 [Compound A59, (S)-2-(3-((3-(5-(1-amino-1,3-dihydrospiro[indene-2,4′-piperidin]-1′-yl)-6-(hydroxymethyl)pyrazin-2-yl)prop-2-yn-1-yl)oxy)phenyl)acetamide] | 26000 |  |  |  | 
2 | 1.8 | 6.1 | 5.1 | 9.4 | 13 | 15.9 | 14.5 | 14.1 | Cn1nccc1NCC#Cc1cnc(N2CCC3(CC2)Cc2ccccc2[C@H]3N)c(CO)n1 [Compound A61, (S)-(3-(1-amino-1,3-dihydrospiro[indene-2,4′-piperidin]-1′-yl)-6-(3-((1-methyl-1H-pyrazol-5-yl)amino)prop-1-yn-1-yl)pyrazin-2-yl)methanol] |  |  |  |  | 
3 | 1.5 | 19.2 | 14 | 56 | 2.6 | 8.1 | 2.9 | 9.7 | NC(=O)c1ccc(OCC#Cc2cnc(N3CCC4(CC3)Cc3ccccc3[C@H]4N)cn2)cc1Cl [Compound A62, (S)-4-((3-(5-(1-amino-1,3-dihydrospiro[inden-2,4′-piperidin]-1′-yl)pyrazin-2-yl)prop-2-yn-1-yl)oxy)-2-chlorobenzamide] |  |  |  |  | 
4 | 2.9 |  | 2.3 | 4.3 |  |  |  |  | NC(=O)Cc1ccc(OCC#Cc2cnc(N3CCC4(CC3)Cc3ccccc3[C@H]4N)c(CO)n2)cc1 [Compound A71, (S)-2-(4-((3-(5-(1-amino-1,3-dihydrospiro[indene-2,4′-piperidin]-1′-yl)-6-(hydroxylmethyl)pyrazin-2-yl)prop-2-yn-1-yl)oxy)phenyl)ace tamide] | > 20000 |  |  |  | 

The remaining lines, values behind:

Row | SMILES | IC50 (SHP2 [2]) [nM] | microsomal CLint at 2 µM [3] [µL/min/mg] | IC50 (leukemia cells MV-4-11; [12]) [nM] | IC50 [4, 13] [nM] | microsomal CLint at 2 µM [5] [µL/min/mg] | microsomal CLint at 2 µM [6] [µL/min/mg] | microsomal CLint at 2 µM ([7]; dog, microsomes) [µL/min/mg] | microsomal CLint at 2 µM [8] [µL/min/mg] | IC50 (hERG potassium channel [1]) [nM] | IC50 (hERG potassium channel [1]; [11]) [nM] | IC50 (leukemia cells MV-4-11; cultured for 120 hrs) [nM] | IC50 ([4]; ultra-low adsorption plate) [nM] | also measured
5 | N[C@@H]1c2ccccc2CC12CCN(c1ncc(C#CCOc3ccncc3)nc1CO)CC2 [Compound A18, (S) - (3-(1-amino-1,3-dihydrospiro [indene-2,4′-piperidine]-1′-yl)-6-(3-(pyridin-4-oxy)prop-1-yn-1-yl)pyrazin-2-yl) methanol] | 35 |  |  |  |  |  |  |  | > 20000 |  |  |  | 
6 | N[C@@H]1c2ccccc2CC12CCN(c1ncc(C#CCOc3ccc(S(N)(=O)=O)cc3)nc1CO)CC2 [Compound A32, (S)-4-((3-(5-(1-amino-1,3-dihydrospiro[indene-2,4′-piperidin]-1′-yl)-6-(hydroxymethy 1)pyrazin-2-yl)prop-2-yn-1-yl)oxy)benzenesulfonamide] | 1.3 |  |  |  |  |  |  |  |  | > 20000 | 3.4 | 9 | CLint (µL/min/mg protein) monkey [3]: 10.1 µL/min/mg protein; CLint (µL/min/mg protein) human [5]: 2.2 µL/min/mg protein; CLint (µL/min/mg protein) rat [6]: 14.7 µL/min/mg protein; CLint (µL/min/mg protein) dog ([7]; dog liver microsomes): 1.9 µL/min/mg protein; CLint (µL/min/mg protein) mouse [8]: 10.6 µL/min/mg protein
7 | CC(=O)Nc1cccc(OCC#Cc2cnc(N3CCC4(CC3)Cc3ccccc3[C@H]4N)c(C(N)=O)n2)c1 [Compound A41] | 14 |  |  |  |  |  |  |  |  | > 20000 |  |  | 
8 | NC(=O)c1ccc(NCC#Cc2cnc(N3CCC4(CC3)Cc3ccccc3[C@H]4N)c(CO)n2)cc1 [Compound A48, (S)-4-((3-(5-(1-amino-1,3-dihydrospiro[indene-2,4′-piperidin]-1′-yl)-6-(hydroxymethy 1)pyrazin-2-yl)prop-2-yn-1-yl)amino)benzamide] | 2 |  |  |  |  |  |  |  |  |  | 1.7 | 12 | IC50 (hERG potassium channel [9]): > 20000 nM; CLint (µL/min/mg protein) monkey [3]: 8.6 µL/min/mg protein; CLint (µL/min/mg protein) human [5]: 7.3 µL/min/mg protein; CLint (µL/min/mg protein) rat [6]: 15.8 µL/min/mg protein; CLint (µL/min/mg protein) dog ([7]; dog, microsomes): 26.3 µL/min/mg protein; CLint (µL/min/mg protein) mouse [8]: 15.2 µL/min/mg protein
9 | CP(C)(=O)c1ccc(OCC#Cc2cnc(N3CCC4(CC3)Cc3ccccc3[C@H]4N)c(CO)n2)cc1 [Compound A57] | 4.3 |  |  |  |  |  |  |  |  | > 20000 | 10 | 22 | 
10 | N[C@@H]1c2ccccc2CC12CCN(c1ncc(Sc3ccnc(Cl)c3Cl)nc1CO)CC2 [compound 243] |  |  |  |  |  |  |  |  |  |  |  |  | IC50 (SHP2 [10]; read-out: IC50 in the SHP2 allosteric inhibition test (lower bound)): > 50 nM; IC50 (SHP2 [10]; read-out: IC50 in the SHP2 allosteric inhibition test (upper bound)): ≤ 1000 nM
